{"source": "patent US11344493B2", "about": "“Cleavable surfactant” (FIRMENICH SA, priority 2017, dated 2022)", "key": {"[1]": {"assay": "Surface tension of aqueous solutions (Kruss DSA 10 MK2 Drop Shape Analysis)", "assay_type": "physicochemical", "conditions": "for surface tension / surface activity: aqueous solution 1% wt, FIG. 2; for critical concentration (CMC) and self-aggregation in micelles: surface tension as function of concentration, FIG. 3", "method": "The surface activity of aqueous solutions of typical well known surfactants at concentration of 1% wt was measured by Kruss DSA 10 MK2 Drop Shape Analysis System. In parallel, the HLB value of the surfactant molecules was calculated by using ECL model. FIG. 2 represented the correlation between the surface tension and the calculated HLB values (black circles). The curve reached a saturation value at HLB 18, which was the limit of the HLB range for the compound of formula (I). All molecules having HLB higher than 18 are not part of the present invention due to a strong water solubility and an insufficient surface activity.\nThe surface tension of compounds of formula (I): Imine F, Imine D, Imine E, Imine B and of comparative Imine C1, was measured as well and the data were added to FIG. 2 (grey squares). […] The HLB calculated for this molecule was higher than 18 and therefore out of the limits fixed in the present invention.\nAs a comparative example, the compound Imine C7 reported in Polymer 2014, vol. 55, pages 1443-1451 was synthetized (see Example 3 g)) and surface tension of the aqueous solution of 1% wt of this molecule was measured. The data was included in FIG. 2 (black triangle).\nThe surface tension as function of the concentration of Imine compounds F and C1 was measured and presented on FIG. 3."}, "[2]": {"assay": "Solubilizing capacity of imines for a model perfume in water", "assay_type": "physicochemical", "conditions": "for Fragrance/Surfactant Weight Ratio: transparent solution of model perfume in water; for Imine: minimal value of surfactant necessary to obtain a transparent solution: water 9.0 g and model perfume 0.3 g", "method": "Water (9.0 g) and the model perfume composition of Table 8 (0.3 g) are mixed under gentle agitation. The resulting solution is turbid. Imines of formula (I) are then added until a transparent solution was obtained. The ratio fragrance to surfactant indicates the solubilizing capacity of the imines wherein higher ratio indicates higher solubilizing capacity of the imine."}, "[3]": {"assay": "Hydrolysis of imines in deuterium oxide in the presence of co-surfactants", "assay_type": "physicochemical", "conditions": "c0 10 mM", "method": "The influence of the presence of (co-)surfactants on the hydrolysis of imines according to formula (I) was investigated by ^1H NMR spectroscopy in deuterium oxide (0.7 mL) as described in Example 5 with an initial imine concentration of 10 mM and 4 wt % of an additional surfactant. The following surfactants were tested: sodium dodecyl sulfate (SDS), sodium laureth sulphate (Texapon® NSO IS; trademark from BASF and commercially available from BASF), hexadecyl-trimethyl-ammonium bromide (cetrimonium bromide), 2,5,8,11,14,17,20,23,26,29,32,35,38,41,44,47,50,53,56,59,62,65,68,71,74-pentacosaoxahexaheptacontan-76-yl stearate (PEG25Monostearate), (polyethylene glycol)9,10 4-(1,1,3,3-tetramethylbutyl)-phenyl ether (Triton® X-100; trademark from Dow Chemical and commercially available from Sigma Aldrich), polyoxyethylene 20 sorbitan monooleate (Tween® 80; trademark from Uniquema, ICI Americas Inc. and commercially available from Sigma Aldrich)."}, "[4]": {"assay": "Hydrolysis of imines in model formulation with Texapon NSO IS", "assay_type": "physicochemical", "conditions": "Texapon NSO IS 4 wt % in deuterium oxide, c0 10 mM", "method": "To investigate the hydrolysis of the imines according to formula (I), a simple model formulation in deuterium oxide was prepared. Freeze-dried Texapon® NSO IS (trademark from BASF and commercially available from BASF) (4 wt %) was dissolved in deuterium oxide (95 wt %) at room temperature. The imine according to formula (I) (1 wt %) was added to the formulation at the beginning of the experiment (t=0), the pH was measured and the NMR measurements were started."}, "[5]": {"assay": "Kinetics of hydrolysis of imines in deuterium oxide (1H NMR)", "assay_type": "physicochemical", "conditions": "for order of hydrolysis kinetics: t1/2 versus initial concentration", "method": "(§1) The compounds according to formula (I) at different concentrations (c=10 . . . 500 mM) were individually dissolved in deuterium oxide (0.7 mL) at room temperature. The pD was measured and the hydrolysis of the imine was followed by ^1H NMR until an equilibrium was reached. The imine concentration at equilibrium was determined. Reactions with constant pD were either performed at unmodified pD (basic) or in a 4-(2-hydroxyethyl)-1-piperazineethanesulfonic acid (HEPES) buffer (slightly acidic). The data summarized in Table 3 were obtained from the measurements."}, "[6]": {"assay": "Equilibration of imines in deuterium oxide (1H NMR)", "assay_type": "physicochemical", "conditions": "conditions of Table 3", "method": "as §1"}, "[7]": {"assay": "Hydrolysis of imines in model formulation with Hostapur SAS 60 and Genapol LA 70", "assay_type": "physicochemical", "conditions": "Hostapur SAS 60 7 wt % and Genapol LA 70 17 wt % in deuterium oxide, c0 10 mM, pD 10.4", "method": "A second aqueous surfactant solution was prepared by dissolving freeze-dried sodium C14-17 sec-alkyl sulphonate (Hostapur® SAS 60; trademark from Clariant GmbH and commercially available from Clariant GmbH; 7 wt %) and freeze-dried ethoxylated C12-16 alcohols (Genapol® LA 70; trademark from Clariant GmbH and commercially available from Clariant GmbH; 17 wt %) in deuterium oxide (75 wt %) at room temperature. Then, sodium deuteroxide 40% in deuterium oxide was added until reaching a pH of 10. The imine according to formula (I) (1 wt %) was added to the formulation at the beginning of the experiment (t=0), the pH was measured and the NMR measurements were started."}, "[8]": {"assay_type": "physicochemical", "conditions": "pH 2.6", "source_text": "Compounds according to formula (I) were included into citral containing microemulsions formed by mixing a buffer solution at pH=2.6 (48% citric acid and 3.2% NaOH in water), Tween® 80 (trademark from Uniquema, ICI Americas Inc. and commercially available from Sigma Aldrich) and citral in the quantities listed in Table 10. […] The two solutions contained equimolar amounts of citral. At different time intervals the different formulations (0.305 g) were extracted by adding an aqueous solution of NaCl (15%, 2.745 g) and iso-octane (3.050 g). The mixtures were stirred (at 500 rpm for 10 min) and left equilibrating (5 min) to separate into two well distinguished phases. The phases were carefully separated and the organic phase (20 μL) analysed by GC/MS. GC/MS analyses were carried out on an Agilent 6890N Network GC system and an Agilent 5973 Network MS. […] Citral was analyzed by single ion monitoring and the extracted citral concentrations were determined by external standard calibration. […] The citral concentration measured in the extraction experiments as a function of time (FIG. 1), were fitted with Equation 2. The degradation rates, as well as the initial maximum citral concentrations were determined."}}}
{"compound": "COCCOCCOCCOCCOCCOCCOCCOCCOCCOCCOCCOCCOCCOCCOCCOCCOCCOCCOCCOCC(C)OCC(C)OCC(C)N=CC=C(C)CCC=C(C)C", "note": "(mixture of isomers) [Imine D]", "values": [{"measurement": "surface tension / surface activity", "setting": "[1]", "result": "strong surface activity"}, {"measurement": "Fragrance/Surfactant Weight Ratio", "setting": "[2]", "result": 5.2}, {"measurement": "Imine: minimal value of surfactant necessary to obtain a transparent solution", "setting": "[2]", "result": 14.36, "unit": "%"}, {"measurement": "concentration at equilibrium (ceq)", "setting": "[3]; co-surfactant Certrimmonium bromide 4 wt %, pD 10.5", "result": 4750, "unit": "µM"}, {"measurement": "concentration at equilibrium (ceq)", "setting": "[3]; co-surfactant PEG25Monostearate 4 wt %, pD 10.5", "result": 2790, "unit": "µM"}, {"measurement": "concentration at equilibrium (ceq)", "setting": "[3]; co-surfactant SDS 4 wt %, pD 10.5", "result": 8930, "unit": "µM"}, {"measurement": "concentration at equilibrium (ceq)", "setting": "[3]; co-surfactant Texapon NSO IS 4 wt %, pD 10.5", "result": 5960, "unit": "µM"}, {"measurement": "concentration at equilibrium (ceq)", "setting": "[3]; co-surfactant none, pD 10.5", "result": 2950, "unit": "µM"}]}
{"compound": "CCCCCCCC=CCCC=NC(C)COC(C)COC(C)COCCOCCOCCOCCOCCOCCOCCOCCOCCOCCOCCOCCOCCOCCOCCOCCOCCOCCOCCOC", "note": "(mixture of isomers) [Imine F]", "values": [{"measurement": "surface tension / surface activity", "setting": "[1]", "result": "strong surface activity"}, {"measurement": "critical concentration (CMC) and self-aggregation in micelles", "setting": "[1]", "result": "existence of critical concentration (CMC)"}, {"measurement": "Fragrance/Surfactant Weight Ratio", "setting": "[2]", "result": 2.7}, {"measurement": "Imine: minimal value of surfactant necessary to obtain a transparent solution", "setting": "[2]", "result": 7.92, "unit": "%"}]}
{"compound": "CCCCCCC(C=NC(C)COC(C)COC(C)COC(C)COC(C)COC(C)COC(C)COC(C)COC(C)COC(C)COCCOCCOCCOCCOCCOCCOCCOCCOCCOCCOCCOCCOCCOCCOCCOCCOCCOCCOCCOCCOCCOCCOCCOCCOCCOCCOCCOCCOCCOCCOCCOC)=Cc1ccccc1", "note": "(mixture of isomers) [Imine C]", "values": [{"measurement": "half-time of hydrolysis (t1/2)", "setting": "[4]; pD 10.5", "result": 17.5, "unit": "h"}, {"measurement": "Fragrance/Surfactant Weight Ratio", "setting": "[2]", "result": 4.0}, {"measurement": "Imine: minimal value of surfactant necessary to obtain a transparent solution", "setting": "[2]", "result": 11.43, "unit": "%"}, {"measurement": "order of hydrolysis kinetics", "setting": "[5]", "result": "pseudo-zero order kinetics"}]}
{"compound": "COCCOCCOCCOCCOCCOCCOCCOCCOCCOCCOCCOCCOCCOCCOCCOCCOCCOCCOCCOCC(C)OCC(C)OCC(C)N=Cc1ccc(O)c(OC)c1", "note": "(mixture of isomers) [Imine C1, reference compound]", "values": [{"measurement": "surface tension / surface activity", "setting": "[1]", "result": "high surface tension value"}, {"measurement": "critical concentration (CMC) and self-aggregation in micelles", "setting": "[1]", "result": "absence of CMC and self-aggregation"}, {"measurement": "stability of the imine at equilibrium", "setting": "[6]", "result": "mostly cleaved"}]}
{"compound": "CCCCCCC(C=NCCOCCOCCOCCOCCOCCOCCOCCOCCOCCOCCOC)=Cc1ccccc1", "note": "[Imine C5]", "values": [{"measurement": "half-time of hydrolysis (t1/2)", "setting": "[4]; pD 10.5", "result": 4.3, "unit": "h"}, {"measurement": "initial rate of hydrolysis (v0)", "setting": "[4]; pD 10.5", "result": "35.4 10^−3 mM/min"}, {"measurement": "half-time of hydrolysis", "setting": "[5]; at all concentrations", "result": "around 5 h"}, {"measurement": "half-time of hydrolysis (t1/2)", "setting": "[5]; c0 10 mM, pD 10.5", "result": 4.56, "unit": "h"}, {"measurement": "initial rate of hydrolysis (v0)", "setting": "[5]; c0 10 mM, pD 10.5", "result": "14.8 10^−3 mM/min"}, {"measurement": "half-time of hydrolysis (t1/2)", "setting": "[5]; c0 25 mM, pD 10.5", "result": 8.4, "unit": "h"}, {"measurement": "initial rate of hydrolysis (v0)", "setting": "[5]; c0 25 mM, pD 10.5", "result": "23.7 10^−3 mM/min"}, {"measurement": "half-time of hydrolysis (t1/2)", "setting": "[5]; c0 100 mM, pD 10.4", "result": 5.28, "unit": "h"}, {"measurement": "initial rate of hydrolysis (v0)", "setting": "[5]; c0 100 mM, pD 10.4", "result": "856 10^−3 mM/min"}, {"measurement": "order of hydrolysis kinetics", "setting": "[5]", "result": "pseudo-first order kinetics"}]}
{"compound": "CCCCCCC(C=NCCc1ccc(OCCOCCOCCOCCOCCOCCOCCOCCOCCOCCOCCOC)cc1)=Cc1ccccc1", "note": "[Imine A]", "values": [{"measurement": "half-time of hydrolysis (t1/2)", "setting": "[4]; pD 10.6", "result": 9.2, "unit": "h"}, {"measurement": "half-time of hydrolysis t1/2 (est.)", "setting": "[7]", "result": 42.5, "unit": "h"}, {"measurement": "half-time of hydrolysis (t1/2)", "setting": "[5]; c0 10 mM, pD 10.1", "result": 59.5, "unit": "h"}, {"measurement": "initial rate of hydrolysis (v0)", "setting": "[5]; c0 10 mM, pD 10.1", "result": "1.3 10^−3 mM/min"}]}
{"compound": "COCCOCCOCCOCCOCCOCCOCCOCCOCCOCCOCCOCCOCCOCCOCCOCCOCCOCCOCCOCCOCCOCCOCCOCCOCCOCCOCCOCCOCCOCCOCCOCC(C)OCC(C)OCC(C)OCC(C)OCC(C)OCC(C)OCC(C)OCC(C)OCC(C)OCC(C)N=CC=C(C)CCC=C(C)C", "note": "(mixture of isomers) [Imine E]", "values": [{"measurement": "surface tension / surface activity", "setting": "[1]", "result": "strong surface activity"}, {"measurement": "Fragrance/Surfactant Weight Ratio", "setting": "[2]", "result": 9.3}, {"measurement": "Imine: minimal value of surfactant necessary to obtain a transparent solution", "setting": "[2]", "result": 23.14, "unit": "%"}, {"measurement": "concentration at equilibrium (ceq)", "setting": "[3]; co-surfactant PEG25Monostearate 4 wt %, pD 10.4", "result": 7500, "unit": "µM"}, {"measurement": "concentration at equilibrium (ceq)", "setting": "[3]; co-surfactant PEG25Monostearate 4 wt %, phosphate buffer (pD 4.4)", "result": 6400, "unit": "µM"}, {"measurement": "concentration at equilibrium (ceq)", "setting": "[3]; co-surfactant none, pD 10.4", "result": 2800, "unit": "µM"}, {"measurement": "decrease of the citral degradation rate", "setting": "[8]", "result": 1.53, "unit": "times"}]}
{"compound": "CCCCCCCC=CCCC=NC(C)COC(C)COC(C)COC(C)COC(C)COC(C)COC(C)COC(C)COC(C)COC(C)COCCOCCOCCOCCOCCOCCOCCOCCOCCOCCOCCOCCOCCOCCOCCOCCOCCOCCOCCOCCOCCOCCOCCOCCOCCOCCOCCOCCOCCOCCOCCOC", "note": "(mixture of isomers) [Imine G]", "values": [{"measurement": "Fragrance/Surfactant Weight Ratio", "setting": "[2]", "result": 5.3}, {"measurement": "Imine: minimal value of surfactant necessary to obtain a transparent solution", "setting": "[2]", "result": 14.68, "unit": "%"}]}
